Measured values reported in ChEMBL document CHEMBL1148622, “Structural insight into the stereoselective inhibition of MMP-8 by enantiomeric sulfonamide phosphonates” (J Med Chem, 2006).
pIC50, pKi: −log10 of the molar value.

Assays:
[1] = target: 72 kDa type IV collagenase (Homo sapiens, UniProt P08253); test: Inhibitory activity against MMP2
Stromelysin-1 [2] = target: T1, Stromelysin-1 (Homo sapiens, UniProt P08254); test: Inhibitory activity against MMP3
Target sequence in this assay (P08254 whole entry): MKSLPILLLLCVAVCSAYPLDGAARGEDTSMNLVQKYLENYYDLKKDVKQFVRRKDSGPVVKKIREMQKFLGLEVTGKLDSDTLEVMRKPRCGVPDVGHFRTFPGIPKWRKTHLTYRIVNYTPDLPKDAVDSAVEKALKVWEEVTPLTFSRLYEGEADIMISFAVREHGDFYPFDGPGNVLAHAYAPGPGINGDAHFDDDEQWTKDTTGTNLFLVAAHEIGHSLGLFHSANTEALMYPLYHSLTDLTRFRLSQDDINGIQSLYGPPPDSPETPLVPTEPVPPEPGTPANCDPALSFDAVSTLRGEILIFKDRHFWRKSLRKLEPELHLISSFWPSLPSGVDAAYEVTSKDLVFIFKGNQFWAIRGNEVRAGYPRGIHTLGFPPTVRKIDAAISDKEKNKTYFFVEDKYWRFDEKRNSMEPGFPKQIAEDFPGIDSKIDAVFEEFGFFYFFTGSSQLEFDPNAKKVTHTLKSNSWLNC

Stromelysin-1 [3] = target: T1, Stromelysin-1; test: Inhibitory activity against MMP3 at 0.1 mM
Target sequence in this assay (P08254 100-477 limits assumed): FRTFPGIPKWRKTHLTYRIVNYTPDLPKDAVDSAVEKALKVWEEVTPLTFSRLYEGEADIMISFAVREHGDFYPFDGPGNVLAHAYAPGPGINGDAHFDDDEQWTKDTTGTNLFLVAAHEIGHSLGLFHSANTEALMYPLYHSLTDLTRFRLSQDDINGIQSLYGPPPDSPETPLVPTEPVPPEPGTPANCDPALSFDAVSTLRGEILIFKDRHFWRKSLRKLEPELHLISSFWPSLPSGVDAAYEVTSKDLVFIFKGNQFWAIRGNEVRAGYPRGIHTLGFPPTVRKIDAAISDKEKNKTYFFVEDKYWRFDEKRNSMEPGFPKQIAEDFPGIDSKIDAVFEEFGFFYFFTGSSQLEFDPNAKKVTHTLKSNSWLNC

72 kDa type IV collagenase, sequence (P08253 whole entry): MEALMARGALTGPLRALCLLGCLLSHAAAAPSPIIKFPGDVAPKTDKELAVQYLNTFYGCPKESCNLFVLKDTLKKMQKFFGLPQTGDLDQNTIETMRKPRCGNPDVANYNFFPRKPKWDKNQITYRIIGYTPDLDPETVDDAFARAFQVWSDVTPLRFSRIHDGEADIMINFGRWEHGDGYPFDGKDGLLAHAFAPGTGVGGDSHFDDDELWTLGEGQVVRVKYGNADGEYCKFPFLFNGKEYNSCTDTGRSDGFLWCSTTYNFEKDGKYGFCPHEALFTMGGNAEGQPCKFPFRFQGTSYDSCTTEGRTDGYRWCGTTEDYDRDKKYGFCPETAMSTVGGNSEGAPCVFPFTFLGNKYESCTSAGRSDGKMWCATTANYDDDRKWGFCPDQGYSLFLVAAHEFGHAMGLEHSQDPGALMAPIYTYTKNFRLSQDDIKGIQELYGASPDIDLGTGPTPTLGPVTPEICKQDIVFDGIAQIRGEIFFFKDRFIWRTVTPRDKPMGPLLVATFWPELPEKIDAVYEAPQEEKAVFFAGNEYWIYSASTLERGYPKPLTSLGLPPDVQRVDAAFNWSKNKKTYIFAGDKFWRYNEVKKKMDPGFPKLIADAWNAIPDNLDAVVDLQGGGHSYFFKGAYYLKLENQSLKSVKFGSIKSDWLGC

Compound	pKi [1]	pKi (Stromelysin-1 [2])	inhibition (Stromelysin-1 [3])	pIC50 [1]	pIC50 (Stromelysin-1 [2])
COc1ccc(-c2ccc(S(=O)(=O)N[C@@H](C(C)C)P(=O)(O)O)cc2)cc1	8.30	7.40	–	–	–
COc1ccc(-c2ccc(S(=O)(=O)N[C@H](C(C)C)P(=O)(O)O)cc2)cc1	5.92	–	< 15%	–	–
CC(C)[C@@H](NS(=O)(=O)c1ccc(-c2ccc(Br)cc2)cc1)C(=O)NO	–	–	–	8.52	8.10
